The source of these data is patent publication EP3791884A1, “COMBINATION OF HEPARIN AND MAGNESIUM SALT FOR THE TREATMENT OF VIRAL INFECTIONS” (Bunz, Oskar, priority 2019, dated 2021).

Like-named read-outs stand apart in the source and are kept apart here.

Series [1] relates to several types of adenovirus. As to conditions: cited from earlier work.
The next series has as its system Adenovirus type 10. Nature of the series: Zinc test series: antiviral effect, adenovirus type 10. The class given is cell-based. The source says: (§1) The inventors have also used zinc for some test series (not described in the Examples section). […] Furthermore, the antiviral effect of zinc was not apparent for all adenoviruses tested. An antiviral effect of zinc was detectable only for adenovirus type 5.

The nature of series [2]: Zinc test series: cytotoxic effect (not described in the Examples). The class given is cell-based.
From the text: as §1

The next series relates to adenovirus type 5. Nature of the series: Zinc test series: antiviral effect, adenovirus type 5. The class given is cell-based.
From the text: as §1

Series [3] relates to HAdV5. As to conditions: HeLa cells, HAdV5 1000 vpc, heparin 5 I.U. per well and/or MgCl2 5 µmol per well 4 hrs prior to infection, 26 hrs post infection.
The next series concerns H9N2. As to conditions: MDCKII cells, H9N2 MOI 0,1, Heparin 5 I.U. per well and/or MgCl2 5 µmol per well.
Series [4] has as its system HAdV5.
Series [5] deals with human adenovirus type 5 (HAdV5). As to conditions: solely MgCl2, with 25 µmol MgCl2, HAdV5 1000 vpc, CHO-K1 cells.
The conditions of series [6]: in vivo; cited from earlier work.

On to `Nc1nc(O)c2ncn(COC(CO)CO)c2n1` [Ganciclovir], for which the efficiency against adenovirus entry in [1] was “not against adenovirus”. The “half-maximal effective concentration (EC50)” value in [1] (in vitro, relative to plasma) is “three times higher than in plasma”.
Take `[Zn]` [zinc]: the “infection efficiencies in cells treated with zinc” value in the series on Adenovirus type 10 was “increased infection efficiencies”. In [2], the cytotoxic effect result is “very strong cytotoxic effect”. The antiviral effect result in the series on adenovirus type 5 is reported as “detectable”.
As to `[Cl-].[Cl-].[Mg+2]` [MgCl2, magnesium chloride], in the series on HAdV5 [3], the “median fluorescent intensity (MFI)” value worked out at 41%. For the same molecule, in the series on H9N2, the “infected cells (immunofluorescence)” value was “slight decrease”. The luciferase expression levels was 7% in the series on HAdV5 [4] (only MgCl2 and virus, compared to untreated cells solely infected with virus); “about 32%” with HAdV5 [4] (only applying virus and MgCl2); 12% in the series on HAdV10 (only MgCl2 and virus); 10% in the series with HAdV10 (only applying virus and MgCl2). The luciferase values in series [5] was determined as 40%.
For `Nc1ccn(C[C@@H](CO)OCP(=O)(O)O)c(=O)n1` [Cidofovir], the toxicity entry in series [6] is recorded as “nephrotoxic”.
`NC(=O)c1ncn([C@@H]2O[C@H](CO)[C@@H](O)[C@H]2O)n1` [Ribavirin]: in [1] (in vitro), the “antiviral activity against HAdV species C” value is recorded as “antiviral activity” and the “antiviral activity against species A, B, D” value is listed as “limited activation”.
